Data taken from US11274131B2, “IgM-mediated receptor clustering and cell modulation” (MAYO FOUNDATION FOR MEDICAL EDUCATION AND RESEARCH, priority 2007, dated 2022).

Columns and labels:
[1] = test system: CD11c+ draining lymph node cells; test: In vivo antigen uptake by CD11c+ draining lymph node cells; parameters: species or system mouse; settings: systemic antibody
Protocol: FIG. 7A is a pair of pictures of western blot analysis for phosphorylation of DAP12 and Syk in B7-DC XAb or control antibody-treated mouse DC, as indicated. FIG. 7B is a graph plotting percent CD11c+ inguinal lymph node cells in mice after OVA-FITC was introduced into the footpads of mice treated systemically with isotype control antibody or the MTAb B7-DC XAb (n=3/group). Cells were analyzed by flow cytometry 24 hours after OVA-FITC introduction.
Antigen uptake experiments were carried out as described previously (Radhakrishnan et al. (2005) Proc. Natl. Acad. Sci. U.S.A. 102:11438-11443). Day 5 DC were matured with TLR ligand CpG-ODN for mouse DC, or with pI:C for human DC. The matured cells were incubated with ovalbumin labeled with FITC or APC and control antibody or B7-DC XAb for two hours, washed and analyzed by FACSCALIBUR™ (Becton Dickinson). In studies involving inhibitors, cells were pretreated 30 minutes as indicated or at 10 μM concentration prior to addition of control antibody or B7-DC XAb. In vivo antigen uptake assays involving wild type or TREM-2−/− mice were carried out by intravenous injection of 10 μg of control antibody or B7-DC XAb on three consecutive days (days −1, 0 and +1). Ovalbumin coupled to FITC was injected in the right foot pad at 1 mg/ml in PBS at 100 μA volume. […] The data are expressed as percent green cells (ovalbumin-FITC) that are positive for CD11c.

[2] = test system: mouse DC; test: Co-immunoprecipitation with class II IA^b from mouse DC; format: cell-based
Source text: In FIG. 5A, the distribution of class II (labeled with APC-conjugated antibody) and CD80/CD86 molecules (labeled with PE-conjugated antibodies) was visualized by FRET following treatment of human monocyte derived DC with B7-DC XAb (open histograms) or with isotype control antibody (filled histograms). For FIG. 5B, mouse bone marrow derived DC were labeled, treated, and analyzed as in FIG. 5A. FIG. 5C indicates the inability of the IA^b specific IgM antibody 25-9-3 (open dark histograms), B7-DC XAb (open light histograms), and isotype control antibody treated samples (filled histograms) to induce FRET (top left and middle panels). Binding of the class II specific IgM antibody to the mouse DC analyzed is shown (top right panel). FIG. 5D indicates the ability of B7-DC-specific IgG antibody (open histograms on left of each panel) or no IgG antibody (open histograms on right of each panel) to inhibit FRET induced by the MTAb B7-DC XAb. Absence of FRET induced by Isotype control antibody is shown in reference (filled histograms). For FIGS. 5E and 5F, immunoprecipitates of membrane proteins from B7-DC XAb or control antibody treated DC were isolated using biotin tagged IA^b-specific KH74 antibody. The precipitates were analyzed by Western blot using mouse-specific TREM-2 and CD40 antibodies as probes. […]

[3] = test system: human DC; test: Calcium flux assay, human DC; format: cell-based
Protocol: Changes in the levels of intracellular Ca^2+ were assessed in Indol-loaded cells by flow cytometry as described previously (Takahashi et al. (2005) J. Exp. Med. 201:647-657). Briefly, 5×10^6 DC/ml were incubated with 5 μM Indo-1 (Calbiochem) at 37° C. for 30 minutes. The cells were washed twice in serum free media and resuspended at 10^6/ml in PBS containing 0.5% BSA. The samples were analyzed by flow cytometry using a UV laser. Violet (390 nm) and blue (500 nm) fluorescence emissions were recorded. Baseline was recorded for two minutes. Antibody was added to the cell suspension (10 μg/ml of control antibody or B7-DC XAb) and the measurements were recorded for 8 additional minutes. In blocking experiments, mouse or human DC were pre-incubated with 10 μg/ml of purified anti-mouse B7-DC antibody (TY-25) or purified anti-human B7-DC antibody (MIH18) for 15 minutes, followed by collection of data for calcium flux as described above. Ionomycin added at 1 μg/ml after 2 minutes served as a positive control. The blue to violet ratio was calculated using FlowJo software (Tristar, Ashland, Oreg.).

Q: Which “uptake of labeled ovalbumin by CD11c+ lymph node cells” value ([1]; TREM-2 KO mice) does the source give for “B7-DC XAb: human monoclonal IgM from a Waldenstrom's macroglobulinemia patient that binds and cross-links B7-DC on DC” here?
A: had no effect on uptake

Q: What about the “uptake of labeled ovalbumin in lymph nodes” value ([1]; wild type mice) of the same substance?
A: significantly activated uptake of labeled ovalbumin

Q: And the “association of TREM-2 with class II IA^b by co-immunoprecipitation” value ([2]; lysates 5 minutes after treatment)?
A: co-immunoprecipitation of TREM-2 with the class II molecule IA^b

Q: And the “recruitment of CD40 to the cap, co-precipitation with class II” value ([2]; mouse DC)?
A: co-precipitation with class II molecules

Q: And the intracellular calcium signal [3]?
A: prolonged calcium signals
